Molecules are shown by their SMILES. Several values for one entry are separate records, joined by “and”; a condition that tells them apart may be missing. Equal entries are not always repeated.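 Results reflect a 48-hour exposure of cells in 96-well plates to compound at five concentrations. GI50 is the concentration that inhibits growth by half. Definition used: TGI = concentration required for complete inhibition of growth.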

Assay in all cases: inhibition of tumour cell growth, NCI panel, 48 h
Experiment [1] concerns KM12 colon.
In experiment [2] the test system is M14 melanoma.
Experiment [3] has as its system U251 CNS.
Experiment [4] relates to SNB-19 CNS.
The test system of experiment [5] is RXF 393 renal.
In experiment [6] the test system is HCT-116 colon.
In experiment [7] the test system is A498 renal.
Experiment [8] has as its system ACHN renal.
The test system of experiment [9] is NCI-H460 lung.
The test system of experiment [10] is HCC-2998 colon.

For `CN(C)CCCNC1=C(Cl)C(=O)c2ccccc2C1=O`, the GI50 was 5.93 µM in experiment [1]; 1.83 µM in experiment [2]; 1.83 µM in experiment [3]; 1.76 µM in experiment [4]; 1.69 µM in [5]; 2.28 µM in experiment [6]. Moreover, the GI50 is 12.7 µM in experiment [7], 4.96 µM in experiment [8], 8.61 µM in experiment [9] and 1.96 µM in [10]. The TGI worked out at 19.3 µM in experiment [1]; 3.38 µM in experiment [2]; 3.27 µM in experiment [3]; 3.28 µM in experiment [4]; 3.14 µM in experiment [5]; 6.04 µM in experiment [6]. Moreover, the TGI in experiment [7] was 25.4 µM; in experiment [8], 9.51 µM; in experiment [9], 25.2 µM; in [10], 3.45 µM.

For `CC(=O)N1[C@H](C(=O)O)CS[C@H]1c1ccncc1`, the TGI in [1], in [2], in experiment [4], in experiment [5], in experiment [6] and in experiment [7] was above 100 µM in each case. For the same molecule, the TGI in [8], in experiment [9] and in experiment [10] was above 100 µM each time.

Take `CC(=O)C(CN(C(C)C)C(C)C)C(c1ccccc1)c1c(O)c2ccccc2oc1=O` (centres undefined): the TGI in [1], in experiment [2], in experiment [3], in experiment [4], in [5] and in experiment [6] was above 100 µM each time. Moreover, the TGI in [7], in [8] and in experiment [9] was above 100 µM in each case.

As for `Nc1ccc(C(=O)N/C(=C\c2ccc3c(c2)OCO3)c2nc3[nH]c(=S)[nH]c(=O)c3[nH]2)cc1`, the TGI in [1], in [2], in [3], in experiment [4], in [5] and in [8] was above 100 µM each time. The molecule also returned a TGI in experiment [10] above 100 µM.

For the molecule `CCN(CC)CC(C(=O)Nc1c(C)cccc1C)/C(C)=N\NC(=O)C[N+](C)(C)C` (centres undefined), the TGI in experiment [1], in [2], in [3], in [4], in experiment [5] and in experiment [6] was above 100 µM each time. For the same molecule, the TGI in experiment [8], in [9] and in [10] was above 100 µM throughout.

For `FC(F)(F)c1ccc(C2SCc3nc4ccccc4n32)cc1` (centres undefined), the TGI in experiment [1], in [3], in experiment [4], in [5], in [6] and in experiment [7] was above 100 µM each time. Further, the TGI in [8] and in [10] was above 100 µM throughout.

As for `C/C(CCn1[nH]c(=O)ccc1=O)=N\O`, the TGI in experiment [1], in [2], in experiment [4], in [5], in experiment [6] and in experiment [7] was above 100 µM throughout. Besides, the TGI in experiment [8], in experiment [9] and in experiment [10] was above 100 µM throughout.

As for `c1cc2c(cc1NC1=NCCO1)CCC2`, the TGI in experiment [1] was above 10 µM; in experiment [4], 7.72 µM; in [5], above 10 µM; in [6], above 10 µM; in experiment [10], above 10 µM.

As to `O=C1NNC(=O)c2ccccc2SSc2ccccc2C(=O)NNC(=O)c2ccccc2SSc2ccccc21`, the GI50 in experiment [1] was 42.3 µM; in experiment [2], 6.28 µM; in experiment [3] it was 7.11 µM; in [4], 6.35 µM; in experiment [6], 5.05 µM; in experiment [8], 7.34 µM. Further, the GI50 in experiment [9] was 31 µM. Moreover, the TGI in [1] is 50 µM and > 100 µM; in [2] it was 50 µM and 32.5 µM; in experiment [3], 50 µM and > 100 µM; in experiment [4], 50 µM and > 100 µM; in [5], above 50 µM; in [6], 50 µM and > 100 µM. Also, the TGI is 50 µM and > 100 µM in [8]; 50 µM and > 100 µM in experiment [9]; above 100 µM in experiment [10].

On to `COc1ccc2c(c1)C(=O)/C(=C/c1ccc(OCC(=O)Nc3nccs3)cc1)O2`, for which the GI50 is 0.431 µM in experiment [1]; 3.03 µM in experiment [2]; 0.598 µM in experiment [3]; 20.4 µM in experiment [4]; 2.75 µM in [6]; 7.99 µM in experiment [7]. The GI50 in [8] was 2.67 µM; in experiment [9], 15.5 µM; in [10] it was 15.2 µM. The TGI was 18.8 µM in [1]; 13.5 µM in experiment [2]; 22.4 µM in [3]; above 65.7 µM in experiment [4]; 10.7 µM in [6]; 26.2 µM in [7]. Further, the TGI in [8] was found to be 20.5 µM; in [9], 34.4 µM; in experiment [10], 31.7 µM.

As for `O=C1NC2(CCCCC2)C2CCCCC(O)C12` (centres undefined), the TGI in experiment [1], in experiment [3], in [4], in experiment [5], in experiment [6] and in experiment [7] was above 100 µM each time. Also, the TGI in [8], in experiment [9] and in experiment [10] was above 100 µM in each case.

As to `CN(CC(=O)O)S(=O)(=O)c1ccc2ccccc2c1`, the TGI in experiment [1], in [2], in experiment [3], in [4], in experiment [5] and in [7] was above 100 µM throughout. Besides, the TGI in [8], in [9] and in experiment [10] was above 100 µM in each case.

On to `CC1(C)OC(=O)C(=Cc2ccc(O)cc2)C(=O)O1`, for which the TGI in [1], in experiment [2], in [3], in [4], in [6] and in [7] was above 100 µM each time. Besides, the TGI in experiment [8], in experiment [9] and in experiment [10] was above 100 µM throughout.

With `CCNC1C2(CCCCC2)NC(=O)C12CCCCC2` (centres undefined), the TGI in experiment [1], in experiment [2], in experiment [3], in experiment [5], in experiment [6] and in experiment [7] was above 100 µM throughout. The TGI in [8], in [9] and in experiment [10] was above 100 µM throughout.

As for `N#CC(C#N)=c1ccc(=C2NCC3CCCN23)cc1` (centres undefined), the TGI in experiment [1], in experiment [2], in experiment [3], in [4], in [5] and in experiment [6] was above 100 µM each time. Also, the TGI in experiment [7], in experiment [9] and in experiment [10] was above 100 µM in each case.

Take `CNC(=O)c1cc(Oc2ccc3nc(NC(=O)Nc4ccc(Cl)c(C(F)(F)F)c4)sc3c2)ccn1`: the GI50 in experiment [1] is 3.41 µM; in experiment [4], 2.77 µM; in experiment [5] it was 1.93 µM; in experiment [6], 1.89 µM; in experiment [7], 2.49 µM; in experiment [8], 1.85 µM. Moreover, the TGI was above 100 µM in [1]; 10.2 µM in experiment [4]; 4.57 µM in experiment [5]; 5.39 µM in experiment [6]; 12.2 µM in experiment [7]; 3.8 µM in experiment [8].

Take `CC1CN1P1(N2CC2C)=NP(N2CC2C)(N2CC2C)=NP(N2CC2C)(N2CC2C)=N1` (centres undefined): the TGI in [2], in [3], in [4], in experiment [5], in [6] and in experiment [7] was above 50 µM throughout. The TGI in [8], in experiment [9] and in [10] was above 50 µM each time.

For the molecule `COc1ccc(-c2cc(=O)c3ccc(O)cc3o2)c(OC)c1OC`, the TGI was above 100 µM in [1]; above 100 µM in experiment [2]; above 100 µM in experiment [4]; 91.8 µM in [5]; above 100 µM in experiment [6]; above 100 µM in experiment [8]. In experiment [10], this molecule returned a TGI above 100 µM.

Regarding `CC(=O)OC(C)C(=O)C1c2cccc(O)c2C(=O)c2c(O)cc(C)cc21` (centres undefined), the TGI is 1.23 µM in experiment [1]; 1.11 µM in [3]; 1.6 µM in experiment [4]; 0.813 µM in [5]; 1.09 µM in experiment [6]; 3.68 µM in experiment [7]. Besides, the TGI in experiment [8] turned out to be 1.85 µM; in experiment [9], 1.35 µM; in [10], 1.69 µM.

With `Clc1cccc(Cc2cn3cc(-c4ccccc4)nc3s2)c1Cl`, the GI50 in experiment [1] was 6.35 µM; in experiment [2], above 100 µM; in experiment [3], 25.5 µM; in experiment [4] it was 24.4 µM; in [5], 3.13 µM; in experiment [6] it was above 100 µM. In addition, the GI50 in experiment [8] is 30.2 µM; in [9], above 100 µM; in experiment [10], 59.5 µM. For the same molecule, the TGI in [1] is above 100 µM; in experiment [2] it was above 100 µM; in experiment [3] it was above 100 µM; in [4], above 100 µM; in experiment [5], 18.7 µM; in [6], above 100 µM. The TGI in [8], in [9] and in experiment [10] was above 100 µM in each case.

Regarding `CCOC(=O)C1=C(C)CC2C(=O)OC(=O)C2C1(C)C` (centres undefined), the TGI in [1], in experiment [2], in experiment [3], in experiment [4], in [5] and in experiment [8] was above 100 µM throughout. For the same molecule, the TGI in experiment [9] and in [10] was above 100 µM each time.

For the molecule `CNC(=O)c1ccccc1Nc1nc(Nc2ccc(N3CCOCC3)cc2OC)ncc1Cl`, the GI50 was 0.298 µM in experiment [1]; 0.541 µM in experiment [2]; 1.94 µM in experiment [3]; 2.05 µM in experiment [4]; 0.797 µM in experiment [5]; 0.537 µM in experiment [6]. Further, the GI50 in experiment [7] was 0.488 µM; in experiment [9], 0.361 µM; in [10], 0.636 µM. Further, the TGI in experiment [1] was 8.52 µM; in [2] it was above 62.8 µM; in experiment [3], above 47.8 µM; in experiment [4], above 100 µM; in experiment [5], 3.31 µM; in [6], above 35.3 µM. The TGI in [7] was 2.39 µM; in [9] it was above 34.4 µM; in experiment [10], above 43.2 µM.

In the case of `Fc1ccc(Nc2ncnc3ccc(-c4cnc5[nH]ccc5c4)cc23)cc1Cl`, the GI50 in experiment [1] is 4.71 µM; in experiment [2], 4.35 µM; in experiment [3] it was 2.17 µM; in experiment [4], 1.94 µM; in experiment [5] it was 1.53 µM; in experiment [6], 1.77 µM. The GI50 in experiment [8] is 0.602 µM; in experiment [9] it was 1.83 µM; in [10], 4.87 µM. The TGI in [1] is above 100 µM; in experiment [2], above 100 µM; in experiment [3], 6.2 µM; in [4] it was 5.94 µM; in experiment [5], 6.27 µM; in experiment [6], 3.63 µM. The TGI was 2.49 µM in [8], 4.06 µM in [9] and above 100 µM in experiment [10].

`COC(=O)[C@@H](C)C[C@H](Cc1ccc(F)cc1)NC(=O)c1csc([C@@H](C[C@H](C(C)C)N(C)C(=O)[C@@H](NC(=O)[C@H]2CCCCN2C)C(C)C)OC(C)=O)n1`: the GI50 in experiment [1] was 0.000953 µM and 0.00636 µM; in [2], 0.00119 µM and 0.00539 µM; in experiment [3] it was 0.00151 µM and 0.00914 µM; in experiment [7], 0.00469 µM and 0.0202 µM; in experiment [8] it was 0.134 µM; in experiment [9], 0.000678 µM and 0.0063 µM. For the same molecule, the TGI is above 16.7 µM in experiment [1]; 0.763 µM and 0.079 µM in [2]; above 16.7 µM in experiment [3]; above 16.7 µM in experiment [4]; 0.225 µM in [6]; 0.111 µM in experiment [7]. In addition, the TGI in experiment [8], in experiment [9] and in experiment [10] was above 16.7 µM each time.

(Values after PubChem BioAssay (NCI).)
